How the values were obtained:
[1] = not given; remark: listed apart in the source
[2] = not given; remark: listed apart in the source
[3] = method code SF-AS, from DOI: 10.1016/s0020-1693(00)85781-3
[4] = method code SF-HPLC, from Peips, M.; Sikk, P.; Aaviksaar, A. (1986). Hydrophobic interaction in the active sites of serine proteases from thermoactinomycetes. Org. React., 23(3)261-271.; conditions: pH 2.2
[5] = method code SF-AS, from PMID: 7149911; conditions: pH 8.9
[6] = method code SF, from DOI: 10.1023/a:1016286026462, PMID: 8570535
[7] = not given; remark: listed apart in the source
[8] = method code SF-AS, from DOI: 10.1016/0304-4165(87)90236-4, PMID: 2889474
[9] = method code SF-AS, from DOI: 10.1016/0041-008x(67)90079-8
[10] = method code SF-HPLC, from DOI: 10.1016/0378-5173(88)90064-6; conditions: pH 7.4
[11] = method code SF-AS, from DOI: 10.1248/bpb1978.4.759, PMID: 7320829
[12] = method code SF-AS, from DOI: 10.1584/jpestics.8.69
[13] = not given; remark: listed apart in the source
[14] = not given; remark: listed apart in the source
[15] = method code …, from Wiggins, H.; Karcher, A.; Michael Wilson, J.; Robb, I. (2008). Determining Octanol/Water Partitioning Coefficients for Industrial Surfactants. Proc. 15th Annual International Petroleum & Biofuels …
[16] = method code SF-AS, from Kishida, K.; Otori, T. (1980). A quantitative study on the relationship between transcorneal permeability of drugs and their hydrophobicity. Jpn J Ophthalmol, 24(3)251-259.; conditions: pH 7.4

Work on `COc1ccc2c(c1)c(-c1ccccc1)nc(=O)n2C` yielded a logP of 1.91.

In the case of `Cc1ccccc1OCC(O)CNCCOc1ccc(C(N)=O)cc1` (stereo unspecified), the logP [1] was 2.19.

`Brc1cc2oc3cc(Br)c(Br)cc3c2cc1Br` showed a logP [2] of 5.98.

With `Cn1c(=O)nc(-c2ccccc2)c2ccc(Cl)cc21` the logP was 2.36.

`c1ccc2c(c1)COCCOCCOCCOCCOCc1ccccc1COCCOCCOCCOCCOC2` gave a logP [3] of 1.84.

In the case of `Clc1cc2oc3c(Cl)cc(Cl)c(Cl)c3c2c(Cl)c1Cl`, the logP [2] was 6.82.

Work on `COC(=O)[C@H](C)NC(C)=O` yielded a logD [4] of -0.57.

`Brc1cc2c(cc1Br)Oc1cc(Br)c(Br)cc1O2` gave a logP [2] of 6.5.

Compound `Cn1c(=O)nc(-c2ccccc2)c2cc(F)ccc21` has a logP of 1.87.

For `CN(N=O)C(=O)Nc1ccccc1`, the logD [5] was 1.72.

`COc1cc(C(C)(C)C)c(O)c(C(C)(C)C)c1` gave a logP [6] of 4.64.

`CC(C)(CO[N+](=O)[O-])C(=O)Oc1ccccc1C(=O)O` showed a logP [7] of 2.32.

`C=C1C(=O)O[C@@H]2C[C@@H](C)[C@@H]3C4CC(=O)[C@]3(C[C@H]12)[C@@]1(C4)C(=O)O[C@@H]2C[C@@H](C)[C@@H]3C=CC(=O)[C@@]3(C)[C@@H](O)[C@@H]21` showed a logP [8] of 1.66.

For `Clc1cccc(Cl)n1`, the logP [9] was 2.15.

For `CC(=O)c1ccc2cc(C(C)C(=O)OCC(=O)N(CCO)CCO)ccc2c1` (stereo unspecified), the logD [10] was 1.7.

`CC1(C)NC(=O)NC1=O` gave a logP [11] of -0.48.

`Clc1cccnc1Cl` gave a logP [9] of 2.11.

Compound `CCCCCCC(NC(C)=O)C(=O)OC` (stereo unspecified) has a logD [4] of 1.7.

For `O=C1NC(=O)C(c2ccccc2)(c2ccccc2)N1S(=O)(=O)c1ccccc1`, the logD ([11]; pH 7.0) was 1.93.

With `Cn1c(=O)nc(-c2ccccc2)c2cc(Cl)ccc21` the logP was 2.38.

In the case of `O=C1NC(=O)C(c2ccccc2)(c2ccc(O)cc2)N1` (stereo unspecified), the logP [11] was 1.72.

In the case of `CN(N=O)C(=O)N(C)c1ccccc1`, the logD [5] was 1.58.

For `COc1ccc(C(c2ccc(OC)cc2)C(F)(F)F)cc1`, the logP [12] was 4.76.

`CN(C)C(=O)COC(=O)c1ccccc1O` gave a logD [10] of 1.21.

Work on `CC1CC2OC(=O)C3(C)C2C(OC3(C)O)C2(C)C(=O)C=CC12` (stereo unspecified) yielded a logP [8] of 0.3.

Work on `c1ccc2nc3ccc4ccccc4c3cc2c1` yielded a logP [13] of 4.27.

Compound `COc1ccc(C(=O)c2ccccc2)c(O)c1` has a logP [6] of 3.82.

In the case of `C=CCOc1ccccc1OCC(CNC(C)C)OC(=O)CCC` (stereo unspecified), the logP [14] was 3.95.

For `O=C(CCCC(CO[N+](=O)[O-])O[N+](=O)[O-])Oc1ccccc1C(=O)O` (stereo unspecified), the logP [7] was 2.62.

Compound `C=C1C(=O)O[C@@H]2C[C@@H](C)[C@@H]3C=CC(=O)[C@@]3(C)[C@@H](OC(=O)CC(=O)O[C@H]3[C@@H]4C(=C)C(=O)O[C@@H]4C[C@@H](C)[C@@H]4C=CC(=O)[C@]43C)[C@H]12` has a logP [8] of 1.33.

`c1cnc2c(c1)cc1ccc3cccc4ccc2c1c34` showed a logP [13] of 5.35.

With `Clc1cnc(Cl)c(Cl)c1` the logP [9] was 3.11.

With `CN(N=O)C(=O)Oc1cccc2ccccc12` the logD [5] was 2.85.

`CCCCCCCCCCCCOCCOCCOCCOCCOCCOCCOCCO` gave a logP [15] of 4.59.

In the case of `CC(=O)c1ccc(N)cc1`, the logD [16] was 0.83.

`CCCCCCCCOC(=O)c1ccc(N(C)C)cc1` showed a logP [6] of 5.75.

In the case of `Clc1cc(Cl)nc(Cl)c1`, the logP [9] was 2.68.

`CCCCC(NC(C)=O)C(=O)O` (stereo unspecified) showed a logD [4] of 0.33.

`Brc1cc2oc3c(Br)c(Br)c(Br)cc3c2cc1Br` gave a logP [2] of 7.04.

Work on `CCC(=O)C(CC(C)N(C)C)(c1ccccc1)c1ccccc1` (stereo unspecified) yielded a logP [1] of 3.93.

`C=CCOc1ccccc1OCC(CNC(C)C)OC(=O)C(C)C` (stereo unspecified) showed a logP [14] of 3.77.

Work on `C=CCOc1ccccc1OCC(CNC(C)C)OC(=O)CC` (stereo unspecified) yielded a logP [14] of 3.76.

Work on `c1ccc2c(c1)cnc1ccccc12` yielded a logP [13] of 3.3.

`C[C@@H]1C[C@H]2OC(=O)[C@@H](C)[C@H]2[C@H](O)[C@]2(C)C(=O)C=C[C@@H]12` gave a logP [8] of 0.53.

For `CC(=O)c1ccc2cc(C(C)C(=O)OCC(=O)N(C)CC(N)=O)ccc2c1` (stereo unspecified), the logD [10] was 1.37.

For `CCCCCCCCCCOCCOCCOCCOCCOCCOCCOCCOCCO`, the logP [15] was 3.09.

For `c1ccc2c(c1)ccc1nc3ccc4ccccc4c3cc12`, the logP [13] was 5.31.

Work on `COC(=O)[C@H](Cc1ccc(O)cc1)NC(C)=O` yielded a logD [4] of 0.33.

Compound `CN(N=O)C(=O)Nc1ccc(F)cc1` has a logD [5] of 1.88.

Compound `CCOc1ccc(N)cc1` has a logD [16] of 1.24.

Work on `COc1ccc(OC)c(N)c1` yielded a logD [16] of 1.2.

With `c1ccc2c(c1)ccc1nc3c(ccc4ccccc43)cc12` the logP [13] was 5.38.

Work on `CC(=O)c1ccc2cc(C(C)C(=O)OCC(N)=O)ccc2c1` (stereo unspecified) yielded a logD [10] of 2.06.

Work on `C=C1C(=O)O[C@@H]2C[C@@H](C)[C@@H]3C=CC(=O)[C@@]3(C)[C@@H](OC(=O)CCCC(=O)O[C@H]3[C@@H]4C(=C)C(=O)O[C@@H]4C[C@@H](C)[C@@H]4C=CC(=O)[C@]43C)[C@H]12` yielded a logP [8] of 1.37.

For `O=C(CCCCO[N+](=O)[O-])Oc1ccccc1C(=O)O`, the logP [7] was 2.21.

Work on `CC1=C2[C@@H](C[C@@H](C)[C@@H]3C=CC(=O)[C@@]3(C)[C@H]2O)OC1=O` yielded a logP [8] of 1.13.

With `CCC(C(c1ccc(OC)cc1)c1ccc(OC)cc1)[N+](=O)[O-]` (stereo unspecified) the logP [12] was 4.45.

In the case of `O=C(CCCCCCO[N+](=O)[O-])Oc1ccccc1C(=O)O`, the logP [7] was 3.22.

Compound `CCC1(c2ccccc2)C(=O)NC(=O)N1S(=O)(=O)c1ccccc1` (stereo unspecified) has a logP [11] of 2.44.

`Cn1c(=O)nc(-c2ccccc2)c2cc(C(F)(F)F)ccc21` gave a logP of 2.69.

Work on `Cc1ccc(C=C2C(=O)[C@]3(C)CCC2C3(C)C)cc1` yielded a logP [6] of 5.13.

In the case of `CC(C)c1ccc(C(=O)CC(=O)c2ccccc2)cc1`, the logP [6] was 6.51.

Compound `O=C(CCCCC(CO[N+](=O)[O-])O[N+](=O)[O-])Oc1ccccc1C(=O)O` (stereo unspecified) has a logP [7] of 2.97.

`CC(C)N(N=O)C(=O)Nc1ccccc1` showed a logD [5] of 2.5.

`Clc1cc2oc3cc(Cl)c(Cl)cc3c2cc1Cl` showed a logP [2] of 5.83.

`CCCCCCOCCOCCOCCOCCOCCO` gave a logP [15] of 1.24.

In the case of `Cc1ccccc1N1C(=O)c2cc(S(N)(=O)=O)c(Cl)cc2NC1C` (stereo unspecified), the logP [1] was 1.8.

Work on `CCC(NC(C)=O)C(=O)OC` (stereo unspecified) yielded a logD [4] of -0.17.

In the case of `O=C(CCO[N+](=O)[O-])Oc1ccccc1C(=O)O`, the logP [7] was 1.6.

With `Cn1c(=O)nc(-c2ccccc2)c2cc(S(C)(=O)=O)ccc21` the logP was 0.59.

With `C=CCOc1ccccc1OCC(CNC(C)C)OC(C)=O` (stereo unspecified) the logP [14] was 3.82.

In the case of `Clc1ccc(Cl)c(Cl)n1`, the logP [9] was 2.77.

With `c1ccc2c(c1)Cc1cccnc1-2` the logP [13] was 2.78.

In the case of `CCN(CC)C(=O)COC(=O)c1ccccc1O`, the logD [10] was 1.99.

Work on `Nc1ccc(CO)cc1` yielded a logD [16] of -0.22.

With `CCN(CC)C(=O)COC(=O)C(C)c1ccc2cc(C(C)=O)ccc2c1` (stereo unspecified) the logD [10] was 3.32.

In the case of `CC(C)NCC(O)c1ccc(NS(C)(=O)=O)cc1` (stereo unspecified), the logP [1] was 0.53.

`Nc1ccc(CCO)cc1` showed a logD [16] of 0.1.

`C=CCOc1ccccc1OCC(CNC(C)C)OC(=O)C(C)(C)C` (stereo unspecified) gave a logP [14] of 3.54.

`Brc1cc2oc3cc(Br)c(Br)c(Br)c3c2cc1Br` gave a logP [2] of 7.2.

`CCCCCCCCCCCCCCOCCOCCOCCOCCOCCOCCOCCOCCO` gave a logP [15] of 5.65.

`CCCCCCCCOCCOCCOCCOCCOCCO` showed a logP [15] of 2.43.

`COc1ccc(CCN(C)CCCC2(c3ccc(OC)c(OC)c3)S(=O)(=O)CCCS2(=O)=O)cc1OC` showed a logP [1] of 2.6.

Work on `CC(C)(CCC(CO[N+](=O)[O-])O[N+](=O)[O-])C(=O)Oc1ccccc1C(=O)O` (stereo unspecified) yielded a logP [7] of 3.33.

For `COc1ccc(C(C)c2ccc(OC)cc2)cc1`, the logP [12] was 4.52.

Compound `CCN(CC)CCNC(=O)c1ccc(NS(C)(=O)=O)cc1` has a logP [1] of 1.36.

In the case of `C=CCOc1ccccc1OCC(CNC(C)C)OC(=O)c1ccc([N+](=O)[O-])cc1` (stereo unspecified), the logP [14] was 5.22.

With `Clc1cncc(Cl)c1` the logP [9] was 2.56.

In the case of `C=CCOc1ccccc1OCC(CNC(C)C)OC(=O)C1CC1` (stereo unspecified), the logP [14] was 3.01.

Compound `CCCCOC(=O)c1ccccc1C(=O)OCCCC` has a logP [6] of 4.39.

For `O=C1NC(=O)C(c2ccccc2)(c2ccccc2)N1S(=O)(=O)c1ccc(Cl)cc1`, the logP [11] was 3.48.

Work on `CCc1ccc(N)cc1` yielded a logD [16] of 1.96.

`COc1ccc(C(c2ccc(OC)cc2)C(C)[N+](=O)[O-])cc1` (stereo unspecified) showed a logP [12] of 3.87.

With `COC(=O)[C@H](CC(C)C)NC(C)=O` the logD [4] was 0.84.

For `ClC(Cl)(Cl)C(c1ccccc1)c1ccccc1`, the logP [12] was 4.87.

Compound `CCN(N=O)C(=O)Nc1ccccc1` has a logD [5] of 2.25.

With `Cc1ccccc1S(=O)(=O)N1C(=O)NC(=O)C1(c1ccccc1)c1ccccc1` the logP [11] was 4.

Work on `Brc1cc2oc3ccc(Br)c(Br)c3c2cc1Br` yielded a logP [2] of 6.2.

`Nc1ccc(Cc2ccc(N)cc2)cc1` gave a logD [16] of 1.62.

With `CCCCCCCCOCCOCCOCCO` the logP [15] was 2.84.

`COc1ccc(C(C[N+](=O)[O-])c2ccc(OC)cc2)cc1` gave a logP [12] of 3.57.

Source: the SangsterLogP compilation
